Reference: PubChem BioAssay (NCI)
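How tested: cells in 96-well plates exposed to compound for 48 hours at five concentrations. TGI is the concentration that stops growth completely.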

What was measured:
Assay in all cases: growth of human tumour cells (NCI), 48 h
[1] = tested on: PC-3 prostate
[2] = tested on: ACHN renal
[3] = tested on: KM12 colon
[4] = tested on: NCI-H226 lung
[5] = tested on: SK-MEL-2 melanoma
[6] = tested on: SR leukemia
[7] = tested on: IGROV1 ovarian
[8] = tested on: SF-268 CNS
[9] = tested on: SNB-75 CNS
[10] = tested on: UACC-62 melanoma
[11] = tested on: U251 CNS

| SMILES | TGI [1] [µM] | TGI [2] [µM] | TGI [3] [µM] | TGI [4] [µM] | TGI [5] [µM] | TGI [6] [µM] | TGI [7] [µM] | TGI [8] [µM] | TGI [9] [µM] | TGI [10] [µM] | TGI [11] [µM] |
| --- | --- | --- | --- | --- | --- | --- | --- | --- | --- | --- | --- |
| CCOC(=O)NC(C(C(=O)OCC)C(=O)OCC)(C(F)(F)F)C(F)(F)F | > 100 | > 100 | > 100 | > 100 | > 100 | > 100 | > 100 | > 100 | > 100 | > 100 | > 100 |
| NN/C(=N\S(=O)(=O)c1cccc2nsnc12)Nc1ccc(Cl)cc1 | > 100 | > 100 | > 100 | > 100 | > 100 | > 100 | > 100 | > 100 | > 100 | > 100 | > 100 |
| COC(=O)CCSC1=CC(=O)c2nc3ccccc3c3ccnc1c23 | 36.7 | 48.3 | 34.8 | > 100 | > 70.1 | > 51.5 | 34.5 | 34.3 | > 100 | 21.7 | > 100 |
| Cc1ccc(S(=O)(=O)c2ccsc2NC(=O)c2ccccc2)cc1 | > 100 | > 79.7 | > 100 | > 100 | > 100 | > 100 | > 100 | > 82.5 | > 93.3 | > 100 | > 100 |
| O=C(Oc1ccc(OC(Oc2ccccc2)c2ccccc2)cc1)c1ccccc1 (stereo not given) | > 31.6 | > 31.6 | > 31.6 | > 31.6 | 36.6 | > 31.6 | 23.4 | 23 | > 31.6 | > 31.6 | > 100 |
| Cc1ccc(C2SC(N)=Nc3c2c(C)nn3C(=O)c2ccc(Cl)cc2)cc1 (stereo not given) | > 10 | > 10 | > 10 | > 10 | > 10 | > 10 | > 10 | > 10 | > 10 | > 10 | > 10 |
| Cc1cn(C2CC(N=[N+]=[N-])C(C(=O)O)O2)c(=O)[nH]c1=O (stereo not given) | > 100 | > 100 | > 100 | > 100 | > 100 | > 100 | > 100 | > 100 | > 100 | > 100 | > 100 |
| COc1ccc(/C(Cl)=C(\CNc2ccccn2)c2ccccc2)cc1OC | > 100 | > 100 | > 100 | > 100 | > 100 | > 100 | > 100 | > 100 | > 100 | > 100 | > 100 |
| O=c1[nH]cnc2c1ncn2C1SC(CO)C(O)C1O (stereo not given) | > 100 | > 100 | > 100 | > 100 | > 100 | > 100 | > 100 | > 100 | > 100 | > 100 | > 100 |
| O=C1c2ccccc2-n2c1nc1cc(Cl)ccc1c2=O | > 100 | > 100 | > 100 | > 100 | > 100 | > 100 | > 100 | > 100 | > 100 | 32.1 | > 100 |
| C=CCN(c1cc(OCc2ccccc2)c2c(c1)c(C)cn2S(=O)(=O)c1ccccc1)S(C)(=O)=O | > 100 | > 100 | > 100 | > 100 | > 100 | > 100 | > 100 | > 100 | > 100 | > 100 | > 100 |
| COc1ccc2[nH]cc(CN3CCC(CO)(c4ccccc4)CC3)c2c1 | > 100 | 47.8 | 35.4 | > 100 | 55.3 | 52.8 | > 100 | 34.8 | 87.6 | 92.2 | > 100 |
| COC(=O)c1c2c(cc3c1CC1(C3)Cc3ccc4c(c3C1=O)CCC4)CCC2 (stereo not given) | > 24.4 | > 31.6 | > 100 | > 30 | 27 | > 21.9 | > 100 | > 100 | > 25.9 | > 25.3 | > 94.3 |
| CCN(CC)c1nc(=O)c(C(=O)C(C)(C)C)c(C(C)(C)C)o1 | > 100 | > 100 | > 100 | > 100 | > 100 | > 100 | > 100 | > 100 | > 100 | > 100 | > 100 |
| Nc1ccc(-c2nc3ccccc3s2)cc1I | > 100 | > 100 | > 100 | > 100 | > 100 | > 100 | > 100 | > 100 | 99.4 | > 100 | > 88.5 |
